Patent US10696615B2, “Prenylated hydroxystilbenes” (The University of Sydney, priority 2011, dated 2020)

Legend:
A498 = experiment: NCI in vitro cancer screen, Renal Cancer; type: cell-based, human; settings: A498
[1] = system: MDA-MB-231 (MDA-MB-231/ATCC); experiment: NCI in vitro cancer screen, Breast Cancer; type: cell-based, human; settings: MDA-MB-231
MCF7 = experiment: NCI in vitro cancer screen, Breast Cancer; type: cell-based, human; settings: MCF7
HOP-92 = experiment: NCI in vitro cancer screen, Non-Small Cell Lung Cancer; type: cell-based, human; settings: HOP-92
A549/ATCC = experiment: as above; type: cell-based, human
NCI-H522 = experiment: as above; type: cell-based, human; settings: NCI-H522
T-47D = experiment: NCI in vitro cancer screen, Breast Cancer; type: cell-based, human
LOX IMVI = experiment: NCI in vitro cancer screen, Melanoma; type: cell-based, human
RPMI-8226 = experiment: NCI in vitro cancer screen, Leukemia; type: cell-based, human; settings: RPMI-8226
OVCAR-4 = experiment: NCI in vitro cancer screen, Ovarian Cancer; type: cell-based, human; settings: OVCAR-4
KM12 = experiment: NCI in vitro cancer screen, Colon Cancer; type: cell-based, human; settings: KM12
SN12C = experiment: NCI in vitro cancer screen, Renal Cancer; type: cell-based, human
NCI-H322M = experiment: NCI in vitro cancer screen, Non-Small Cell Lung Cancer; type: cell-based, human
UACC-257 = experiment: NCI in vitro cancer screen, Melanoma; type: cell-based, human; settings: UACC-257
SK-MEL-2 = experiment: NCI in vitro cancer screen, Melanoma; type: cell-based, human; settings: SK-MEL-2
SK-MEL-28 = experiment: NCI in vitro cancer screen, Melanoma; type: cell-based, human; settings: SK-MEL-28
RXF-393 = experiment: NCI in vitro cancer screen, Renal Cancer; type: cell-based, human; settings: RXF-393
HL-60 (TB) = experiment: NCI in vitro cancer screen, Leukemia; type: cell-based, human; settings: HL-60 (TB)
SF-539 = experiment: NCI in vitro cancer screen, CNS Cancer; type: cell-based; settings: SF-539
SNB-75 = experiment: NCI in vitro cancer screen, CNS Cancer; type: cell-based, human; settings: Homo sapiens, SNB-75
SF-268 = experiment: NCI in vitro cancer screen, CNS Cancer; type: cell-based, human; settings: SF-268
OVCAR-8 = experiment: NCI in vitro cancer screen, Ovarian Cancer; type: cell-based, human; settings: OVCAR-8
HT29 = experiment: NCI in vitro cancer screen, Colon Cancer; type: cell-based, human; settings: HT29
EKVX = experiment: NCI in vitro cancer screen, Non-Small Cell Lung Cancer; type: cell-based, human
MOLT-4 = experiment: NCI in vitro cancer screen, Leukemia; type: cell-based, human; settings: MOLT-4
PC-3 = experiment: NCI in vitro cancer screen, Prostate Cancer; type: cell-based, human; settings: PC-3
UO-31 = experiment: NCI in vitro cancer screen, Renal Cancer; type: cell-based, human; settings: UO-31
M14 = experiment: NCI in vitro cancer screen, Melanoma; type: cell-based, human; settings: M14
HCT-15 = experiment: NCI in vitro cancer screen, Colon Cancer; type: cell-based, human; settings: HCT-15
COLO 205 = experiment: NCI in vitro cancer screen, Colon Cancer; type: cell-based, human; settings: COLO 205
OVCAR-5 = experiment: NCI in vitro cancer screen, Ovarian Cancer; type: cell-based, human; settings: OVCAR-5
[2] = Homo sapiens, read-out: LC50 (the source's name)

## COc1cc(O)cc(/C=C/c2ccc(O)c(O)c2)c1CC=C(C)C [USYDS9, (E)-2-(3-methyl-2-buten-1-yl)-3′,4′,5-trihydroxy-3-methoxystilbene]
A498
  TGI: 53.5 µM
A498; Homo sapiens
  GI50: 10.3 µM
A498; [2]
  CC50: > 100 µM
[1]; Homo sapiens
  GI50: 0.38 µM
[1]; [2]
  CC50: > 100 µM
[1]
  TGI: 2.61 µM
MCF7; Homo sapiens
  GI50: 2.81 µM
MCF7; [2]
  CC50: > 100 µM
MCF7
  TGI: >100 µM
HOP-92
  TGI: >100 µM
HOP-92; Homo sapiens
  GI50: 0.62 µM
HOP-92; [2]
  CC50: > 100 µM
A549/ATCC
  TGI: 41.5 µM
A549/ATCC; Homo sapiens
  GI50: 2.62 µM
A549/ATCC; [2]
  CC50: > 100 µM
NCI-H522; Homo sapiens
  GI50: 0.15 µM
NCI-H522; [2]
  CC50: 44.8 µM
NCI-H522
  TGI: 0.45 µM
T-47D
  TGI: 36.9 µM
T-47D; Homo sapiens, T47D
  GI50: 4.78 µM
T-47D; Homo sapiens, T47D, read-out: LC50 (the source's name)
  CC50: > 100 µM
LOX IMVI
  TGI: 58.6 µM
LOX IMVI; Homo sapiens
  GI50: 0.64 µM
LOX IMVI; [2]
  CC50: > 100 µM
RPMI-8226; Homo sapiens
  GI50: 0.45 µM
RPMI-8226; [2]
  CC50: > 100 µM
RPMI-8226
  TGI: >100 µM
OVCAR-4; Homo sapiens
  GI50: 5.48 µM
OVCAR-4; [2]
  CC50: > 100 µM
OVCAR-4
  TGI: >100 µM
KM12; Homo sapiens
  GI50: 0.52 µM
KM12; [2]
  CC50: 63.9 µM
KM12
  TGI: 12.2 µM
SN12C
  TGI: 83.5 µM
SN12C; Homo sapiens
  GI50: 1.76 µM
SN12C; [2]
  CC50: > 100 µM
NCI-H322M
  TGI: >100 µM
NCI-H322M; Homo sapiens
  GI50: 0.76 µM
  LC50 (50% lethal concentration): > 100 µM
UACC-257; Homo sapiens
  GI50: 6.15 µM
UACC-257; [2]
  CC50: > 100 µM
UACC-257
  TGI: 59.2 µM
SK-MEL-2; Homo sapiens
  GI50: 2.17 µM
  LC50: > 100 µM
SK-MEL-2
  TGI: 12.1 µM
SK-MEL-28; Homo sapiens
  GI50: 8.14 µM
  LC50: > 100 µM
SK-MEL-28
  TGI: >100 µM
RXF-393; Homo sapiens
  GI50: 0.23 µM
RXF-393; [2]
  CC50: > 100 µM
RXF-393
  TGI: 0.63 µM
HL-60 (TB)
  TGI: 0.43 µM
HL-60 (TB); Homo sapiens
  GI50: 0.2 µM
HL-60 (TB); [2]
  CC50: 0.95 µM
SF-539; Homo sapiens
  GI50: 0.28 µM
SF-539; [2]
  CC50: > 100 µM
SF-539
  TGI: 1.02 µM
SNB-75
  GI50: 0.24 µM
SNB-75; read-out: LC50 (the source's name)
  CC50: > 100 µM
SF-268; Homo sapiens
  GI50: 0.63 µM
SF-268; [2]
  CC50: > 100 µM
SF-268
  TGI: 37.6 µM
OVCAR-8; Homo sapiens
  GI50: 0.5 µM
OVCAR-8; [2]
  CC50: > 100 µM
OVCAR-8
  TGI: 38.3 µM
HT29
  TGI: 46.6 µM
HT29; Homo sapiens, HT-29
  GI50: 18.6 µM
HT29; Homo sapiens, HT-29, read-out: LC50 (the source's name)
  CC50: > 100 µM
EKVX
  TGI: >100 µM
EKVX; Homo sapiens
  GI50: 26.4 µM
EKVX; [2]
  CC50: > 100 µM
MOLT-4; Homo sapiens
  GI50: 1.27 µM
MOLT-4; [2]
  CC50: > 100 µM
MOLT-4
  TGI: 6.77 µM
PC-3; Homo sapiens
  GI50: 2.92 µM
PC-3; [2]
  CC50: > 100 µM
PC-3
  TGI: >100 µM
UO-31; Homo sapiens
  GI50: 0.46 µM
UO-31; [2]
  CC50: > 100 µM
UO-31
  TGI: >100 µM
M14; Homo sapiens
  GI50: 0.3 µM
M14; [2]
  CC50: > 100 µM
M14
  TGI: 5.69 µM
HCT-15
  TGI: >100 µM
HCT-15; Homo sapiens
  GI50: 0.43 µM
HCT-15; [2]
  CC50: > 100 µM
COLO 205
  TGI: 83.6 µM
COLO 205; Homo sapiens
  GI50: 21.7 µM
COLO 205; [2]
  CC50: > 100 µM
OVCAR-5; Homo sapiens
  GI50: 30.7 µM
OVCAR-5; [2]
  CC50: > 100 µM
OVCAR-5
  TGI: >100 µM
